Reference: ChEMBL document CHEMBL4190345, “Synthesis and biological evaluation of new substituted thioglycolurils, their analogues and derivatives” (Eur J Med Chem, 2017)

Legend:
[1] = tested on: Jurkat; test: Induction of apoptosis in human Jurkat cells assessed as apoptotic cells level at 5 uM incubated for 24 hrs by annexin V and Alexa Fluor 488 dye staining based flow cytometry (reference value: 2.62%); format: functional
[2] = tested on: Jurkat; test: Induction of apoptosis in human Jurkat cells assessed as viable cells level at 5 uM incubated for 24 hrs by annexin V and Alexa Fluor 488 dye staining based flow cytometry (reference value: 95.27%); format: functional
[3] = tested on: Jurkat; test: Induction of apoptosis in human Jurkat cells assessed as viable cells level at 5 uM incubated for 24 hrs by annexin V and Alexa Fluor 488 dye staining based flow cytometry (reference value: 92.408%); format: functional
[4] = tested on: RD; test: Cytotoxicity in human RD cells assessed as inhibition of cell growth incubated for 72 hrs by MTT assay; format: functional, cell-based
[5] = tested on: A549; test: Cytotoxicity in human A549 cells assessed as inhibition of cell growth incubated for 72 hrs by MTT assay; format: functional, cell-based; details: A549, 72 h
[6] = tested on: Jurkat; test: Induction of apoptosis in human Jurkat cells assessed as necrotic cells level at 5 uM incubated for 24 hrs by annexin V and Alexa Fluor 488 dye staining based flow cytometry (reference value: 2.04%); format: functional
[7] = tested on: Jurkat; test: Induction of apoptosis in human Jurkat cells assessed as damaged cells level at 5 uM incubated for 6 hrs by annexin V and Alexa Fluor 488 dye staining based flow cytometry (reference value: 0.07%); format: functional
[8] = Cytotoxicity in human […] cells assessed as inhibition of cell growth incubated for 72 hrs by MTT assay; format: functional, cell-based
[9] = tested on: MCF7; test: Cytotoxicity in human MCF7 cells assessed as inhibition of cell growth incubated for 72 hrs by MTT assay; format: functional, cell-based; details: MCF7, 72 h
[10] = tested on: Jurkat; test: Induction of apoptosis in human Jurkat cells assessed as damaged cells level at 5 uM incubated for 24 hrs by annexin V and Alexa Fluor 488 dye staining based flow cytometry (reference value: 0.048%); format: functional
[11] = tested on: HEK293; test: Cytotoxicity in human HEK293 cells assessed as inhibition of cell growth incubated for 72 hrs by MTT assay; format: cell-based
[12] = tested on: Jurkat; test: Induction of apoptosis in human Jurkat cells assessed as apoptotic cells level at 5 uM incubated for 24 hrs by annexin V and Alexa Fluor 488 dye staining based flow cytometry (reference value: 4.928%); format: functional
[13] = tested on: Jurkat; test: Induction of apoptosis in human Jurkat cells assessed as necrotic cells level at 5 uM incubated for 24 hrs by annexin V and Alexa Fluor 488 dye staining based flow cytometry (reference value: 2.616%); format: functional
[14] = tested on: Bipolaris sorokiniana; test: Fungicidal activity against Bipolaris sorokiniana grown under potato-saccharose agar assessed as inhibition of mycelial radial growth at 30 mg/l incubated for 72 hrs; format: functional; details: read-out: GI
[15] = tested on: Rhizoctonia solani; test: Fungicidal activity against Rhizoctonia solani grown under potato-saccharose agar assessed as inhibition of mycelial radial growth at 30 mg/l incubated for 72 hrs; format: functional; details: read-out: GI
[16] = tested on: Fusarium verticillioides; test: Fungicidal activity against Fusarium moniliforme grown under potato-saccharose agar assessed as inhibition of mycelial radial growth at 30 mg/l incubated for 72 hrs; format: functional; details: read-out: GI
[17] = tested on: Venturia inaequalis; test: Fungicidal activity against Venturia inaequalis grown under potato-saccharose agar assessed as inhibition of mycelial radial growth at 30 mg/l incubated for 72 hrs; format: functional; details: read-out: GI
[18] = tested on: Sclerotinia sclerotiorum; test: Fungicidal activity against Sclerotinia sclerotiorum grown under potato-saccharose agar assessed as inhibition of mycelial radial growth at 30 mg/l incubated for 72 hrs; format: functional; details: read-out: GI
[19] = tested on: Fusarium oxysporum; test: Fungicidal activity against Fusarium oxysporum grown under potato-saccharose agar assessed as inhibition of mycelial radial growth at 30 mg/l incubated for 72 hrs; format: functional; details: read-out: GI
[20] = Homo sapiens, HEK293, 72 h, read-out: IC50

Structure (SMILES) | Apoptotic cells [1] [%] | Viable cells [2] [%] | Activity [3] [%] | IC50 [4] [µM] | IC50 [5] [µM] | Activity [6] [%] | Activity [7] [%] | IC50 [8] [µM] | IC50 [9] [µM] | Activity [10] [%] | IC50 ([11]; hek293) | Apoptotic cells [12] [%] | Necrotic cells [13] [%] | IC50 [11, 20] [µM] | inhibition of growth at 30 µg/mL [14] [%] | inhibition of growth at 30 µg/mL [15] [%] | inhibition of growth at 30 µg/mL [16] [%] | inhibition of growth at 30 µg/mL [17] [%] | inhibition of growth at 30 µg/mL [18] [%] | inhibition of growth at 30 µg/mL [19] [%]
CN1C(=O)N(C)C2C1NC(=S)N2/N=C/C=C/c1ccccc1[N+](=O)[O-] (centres undefined) | 3.18 | 94.6 | 56.128 | 32.4 | 2.72 | 2.16 | 0.06 | 3.76 | 1.76 | 0.088 | Not Active | 34.62 | 9.164 | – | – | – | – | – | – | –
COc1ccccc1/C=C/C=N/N1C(=S)NC2C1N(C)C(=O)N2c1ccccc1 (centres undefined) | 3.1 | 94.37 | 56.076 | 0.02 | > 100 | 2.39 | 0.14 | 0.012 | 0.26 | 0.136 | – | 26.98 | 16.808 | 0.23 | – | – | – | – | – | –
CC[C@@]1(O)C(=O)OCc2c1cc1n(c2=O)Cc2cc3ccccc3nc2-1 [CAMPTOTHECIN] | 32.64 | 63.71 | 37.372 | 4.49 | 8.87 | 3.53 | 0.12 | 12.3 | 13.6 | 0.132 | – | 36.412 | 26.084 | 54.7 | – | – | – | – | – | –
CCN1C(=O)N(c2ccccc2)C2NC(=S)N(/N=C/C=C/c3ccccc3OC)C21 (centres undefined) | – | – | – | 45.9 | > 100 | – | – | 2.12 | 79.1 | – | – | – | – | 57.5 | 0 | 17 | 19 | 0 | 12 | 1
CCN1C(=O)N(CC)C2C1NC(=S)N2/N=C/C=C/c1ccccc1OC (centres undefined) | 3.02 | 94.06 | 50.468 | 0.25 | 0.61 | 2.82 | 0.1 | 17.5 | > 100 | 0.076 | – | 36.66 | 12.796 | 86.1 | 38 | 52 | 37 | 29 | 10 | 21
